Data published in patent publication US9719982B2, “Devices comprising muscle thin films and uses thereof in high throughput assays for determining contractile function” (President and Fellows of Harvard College, priority 2009, dated 2017).
Positions of bridges follow the written chain, without caps; N, C: chain ends. No end group written: not given here.

Experiments:
[1] = system: vascular smooth muscle cells; assay: Horizontal muscular thin film (hMTF) contractility assay with vascular smooth muscle cells; assay type: cell-based
Method: FIG. 12 contrasts the use of fluorescent microscopy and the use of brightfield stereo microscopy of vascular smooth muscle (VSM) horizontal MTFs during an assay of the invention as described in Example 5. The top row depicts fluorescent microscopy photographs of VSM horizontal MTFs comprising fluorescent beads embedded in the PDMS film. […] (A) Photographs taken 5 minutes after the start of the experiment, the films are slightly bent up from the glass due to the initial contraction of VSM. (B) Photographs taken 20 minutes after addition of the vasoconstrictor (Endothilin-1), which causes the VSM to contract and the films to bend up from the glass. […] Actuation and observation of multiple MTFs was carried out in a physiologic solution (e.g., normal Tyrodes solution). The horizontal […]) fabricated with vascular smooth muscle cells in the presence of fluorescent beads were treated with the endothelium-produced vasoconstrictor endothelin-1 (ET-1) followed by the rho-kinase inhibitor HA-1077. […] Quantification and analysis of thin film motion was performed using ImageJ (NIH) and MATLAB software. From the thresholded fluorescent images the length of the projection of the film on the horizontal plane was tracked throughout the contraction and the radius of curvature calculated. Using elasticity theory, the contraction stress necessary to induce the measured changes in curvature were calculated.

[2] = system: Human umbilical artery vascular smooth muscle; assay: Vascular muscular thin film (vMTF) contractility assay, films adhered to PTFE coated posts; assay type: cell-based
Method: Human umbilical artery vascular smooth muscle was seeded on thin films at 300 cells/mm^2 in complete M199 medium (M199 supplemented with 10% fetal bovine serum (FBS), penicillin, streptomycin, L-glutamine, glucose and vitamin B12). The tissue was cultured in complete M199 for 48 hours, with a single media change at 24 hours. After 48 hours, the cells were serum starved for an additional 48 hours (M199 supplemented with penicillin, streptomycin, L-glutamine, glucose and vitamin B12, but no FBS).
Muscle thin films were transferred to fresh Tyrode's solution in the testing dish (FIG. 1), which is maintained at 37° C. by a peltier heating system. Films were adhered to Teflon coated posts (FIG. 3) by moving them into close contact using tweezers. The films were imaged using a stereomicroscope outfitted with fluorescent imaging capability. Both brightfield and fluorescent images were captured every thirty seconds. In the experiment shown in FIG. 4, four films were treated with 50 nM endothelin-1 followed by 100 μM HA-1077 (fasudil).
Quantification and analysis of thin film motion was performed using ImageJ (NIH) and MATLAB software. Thresholded fluorescent images (FIG. 4 B) were fit to circles whose radii of curvature could be measured (FIG. 4C). Using elasticity theory, the contraction stress necessary to induce the measured changes in curvature were calculated (FIG. 4D).
Human umbilical artery VSMCs were engineered as anisotropic monolayers aligned parallel to the long axis of the MTF. The vMTFs were adhered to PTFE coated posts via hydrophobic interaction with the PDMS. This arrangement allowed multiple vMTFs to be viewed concurrently. Here, eight vMTFs were tested using this assay. The fluorosphere doped PDMS could be viewed using fluorescent stereomicroscopy. In this arrangement, the films are easily approximated as circular arcs.
The vMTFs were treated with the endothelium-produced vasoconstrictor endothelin-1 followed by the rho-kinase inhibitor HA-1077, in order to calculate all of the relevant stress states of arterial muscle. […] This value represents the resting tension of the tissue. […] The HA-1077 dosage is sufficient to inhibit all myosin light chain phosphorylation, so this value represents the residual stress, or the stress generated by the cytoskeletal elements not involved in the contractile apparatus, but which remains after all other loads are removed.

Compound | change in radius of curvature of hMTFs ([1]; 100 mM HA-1077 following ET-1) | effect on VSM horizontal MTFs (FIG. 12C) ([1]; 30 minutes after addition of rho-kinase inhibitor, films lie flat on the glass) | change in radius of curvature of vMTFs ([2]; 100 μM HA-1077 following ET-1) | stress after inhibition of contraction (residual stress) ([2]; treatment with 100 μM HA-1077 following 50 nM ET-1) | change in radius of curvature of hMTFs ([1]; 50 nM ET-1 at time 0) | effect on VSM horizontal MTFs (FIG. 12B) ([1]; 20 minutes after addition of the vasoconstrictor, films bend up from the glass) | change in radius of curvature of vMTFs ([2]; 50 nM ET-1) | increase in cell generated stress ([2]; vMTFs stimulated with 50 nM ET-1 at time 0, basal stress 17.1±1.7 kPa)
O=S(=O)(c1cccc2cnccc12)N1CCCNCC1 [HA-1077, fasudil] | rapid increase in radius of curvature | completely relax | rapid increase in radius of curvature | 3.1±0.8 kPa |  |  |  | 
endothelin-1 (CSCSSLMDKECVYFCHLDIIW; disulfide 1-15, 3-11; ends not checked; UniProt P05305 53-73, looked up) [ET-1, endothelium-produced vasoconstrictor] |  |  |  |  | decrease in their radii of curvature | contract | decrease in their radii of curvature | 5.06±0.75 kPa
